# Patent US20110033904A1, “METHOD FOR PREPARING ORTHODIHYDROXYISOFLAVONES USING A BIOTRANSFORMATION SYSTEM” (priority 2008, published 2011)
# Test system: C57BL/6 mouse melanocyte cells (MeI-Ab cells)
# Assay: Melanin production inhibitory effects using MeI-Ab cells (Dooley's method)
# Format: cell-based
# Settings: substances added during 3 days from day 2 of culture, absorbance at 400 nm, hydroquinone 100 ppm
# Experimental: The melanin production inhibitory effects of the ODIs obtained in Examples 1 and 2 were measured using MeI-Ab cells.
# First, C57BL/6 mouse melanocyte cells (MeI-Ab cells) (Dooley, T. P. et al, Skin pharmacol, 7, pp 188-200) were cultured in a DMEM (Dulbeccos modified Eagles media) medium containing 10% fetal bovine serum, 100 nM 2-O-tetradecanoylphorbol-13-acetate and 1 nM cholera toxin in conditions of 37° C. and 5% CO2. The cultured MeI-Ab cells were detached by 0.25% trypsin-EDTA and cultured in a 24-well plate at a concentration of 10^5 cells/well. During the culture period, 100 ppm hydroquinone and each of the ODIs obtained in Examples 1 and 2 were added to the cells continuously during 3 days from 2 days after the start of the culture. Herein, the hydroquinone was used as a positive control group. The culture broth was collected and washed, and the cells were lysed with 1N sodium hydroxide and measured for absorbance at 400 nm.
# Melanin production inhibition (%)=100−(absorbance of each test substance/absorbance of control group×100) [Math Figure 1]
SMILES,Melanin production inhibition (%),"inhibition at 100 ppm (Mus musculus, Melanocyte) [%]"
"O=c1c(-c2ccc(O)c(O)c2)coc2cc(O)ccc12 [7,3′,4′-trihydroxyisoflavone]",38.7,
"O=c1c(-c2ccc(O)c(O)c2)coc2cc(O)cc(O)c12 [7,5,3′,4′-tetrahydroxyisoflavone]",40.8,
"O=c1c(-c2ccc(O)cc2)coc2cc(O)c(O)cc12 [7,6,4′-trihydroxyisoflavone]",38.8,
"O=c1c(-c2ccc(O)cc2)coc2c(O)c(O)ccc12 [7,8,4′-trihydroxyisoflavone]",39.8,
"Oc1ccc(O)cc1 [Hydroquinone, hydroquinone, reference compound]",,41.1
